The results in this text go back to patent US20080064679A1, “Water Soluble Cannabinoids” (priority 2004, published 2008).

“And” between values parts separate entries of the source, which are not always exact repeats. Equal values may be shown once. “Also recorded” adds a separate entry of the source. Read-outs that look alike come from different tables or passages of the source.

The subject of data set [1] is mice. Put plainly: Spontaneous activity (S.A.), mouse tetrad. The note with it: for ED50: Mus musculus. Type of data set: in vivo.
For a further data set, the target named is T1, human CB2 receptor (Homo sapiens, UniProt P34972).
T1 construct: expressed in transfected cells; b94 says HEK for CB2
Put plainly: CB2 receptor binding, [3H]CP55,940 displacement in membranes of transfected cells. Conditions: mean±SEM, read-out: CB2 Ki. As for the experimental part:
cLogP calculations. Absolute solubility determinations were not performed. Rather, cLogP calculations were performed using the CS ChemDraw Ultra software (Cambridge Soft Corporation, Cambridge, Mass.). Receptor Binding. HEK-293 cells stably expressing the human CB1 receptor were cultured in DMEM with 10% FBS and Chinese Hamster Ovary (CHO) cells stably expressing the human CB2 receptor were cultured in DMEM with 10% FCS. Cells were harvested by replacement of the media with cold phosphate-buffered saline containing 1 mM EDTA followed by centrifugation at 1000×g for 5 min at 4° C. The pellet was resuspended in 50 mM Tris-HCl containing 320 mM sucrose, 2 mM EDTA and 5 mM MgCl2 (pH 7.4) (centrifugation buffer), then centrifuged at 1000×g for 10 min at 4° C., and the resulting supernatant was saved. This process was repeated twice. The supernatant fractions were combined and centrifuged at 40,000×g for 30 min at 4° C. The resulting P2 pellet was resuspended in assay buffer (50 mM Tris-HCl (pH 7.4), 3 mM MgCl2, 0.2 mM EGTA, and 100 mM NaCl) and protein was determined by the method of Bradford ENRfu(Bradford 1976). Membranes were stored at −80° C. until use. […] The assay was incubated at 30° C. for 1 hr and terminated by addition of ice cold 50 mM Tris-HCl plus BSA (1 mg/ml) (pH 7.4) followed by filtration under vacuum through Whatman GF/B glass fiber filters with 3 washes with cold Tris buffer. Bound radioactivity was determined by liquid scintillation spectrophotometry at 50% efficiency after extraction by shaking samples for 30-60 min with Budget-Solve scintillation fluid. Data are reported as the mean±SEM of three experiments, each performed in triplicate. Ki values were calculated from displacement data using EBDA (Equilibrium Binding Data Analysis; BIOSOFT, Milltown, N.J.). [^35S]GTPγS Binding Assays. Concentration-effect curves were generated by incubating membranes (10 μg prepared from CB1 expressing cells as described above) in assay buffer containing BSA (1 mg/ml) with various concentrations of test compounds in the presence of 20 μM GDP and 0.1 nM [^35S]GTPγS in a 1 ml total volume. […] Basal binding was assessed in the absence of agonist, and nonspecific binding was measured in the presence of 10 μM GTPγS. The reaction was incubated for 90 min at 30° C. and terminated by filtration under vacuum through Whatman GF/B glass fiber filters with 3 washes with cold (4° C.) Tris buffer (50 mM Tris-HCl, pH 7.4). Bound radioactivity was determined by liquid scintillation spectrophotometry at 95% efficiency after extraction overnight in ScintiSafe Econo 1 scintillation fluid. Data are reported as mean±SEM of three experiments, each performed in triplicate. Nonlinear regression analysis was conducted by iterative fitting using JMP (SAS for Macintosh). Net-stimulated [^35S]GTPγS binding is defined as [^35S]GTPγS binding in the presence of drug minus basal and percent stimulation is expressed as (net stimulated [^35S]GTPγS binding/basal)×100%. Behavioral Evaluations. All animals were allowed to acclimate to the observation room overnight. Behavioral effects were assessed in the tetrad model in order to measure potency in producing antinociception, catalepsy, hypothermia, and hypomobility. The baselines for tail-flick latency (2-4 seconds) and rectal temperature were determined prior to i.v. injections. Baseline rectal temperatures were measured using a telethermometer and a thermometer probe inserted to 25 mm (Yellow Springs Instrument Co., Yellow Springs, Ohio). The mice were then given either an i.v. i.c.v. injection of the analog. The mice were placed in individual photocell activity chambers 5 min later. Spontaneous activity was monitored for 10 min in a Digiscan Animal Activity Monitor (Omnitech Electronice, Inc., Columbus, Ohio) as measured by the number of interruptions of 16 photocell beams per chamber. The total number of beam interruptions during the 10-min period was determined and presented as total counts.

Data set [2] relates to mice. The data set can be described thus: Tetrad model, all four behavioral measures together (time course, oral and i.c.v. administration). The class given is in vivo, mouse. Conditions: for In vivo potency relative to Δ^9-THC (times more potent): i.v., 1:1:18 vehicle; for Potency following oral administration (four tests) / Time course of effects following oral administration: 10 mg/kg; for Potency following oral administration (four tests): 30 minutes before the start of testing; for Time course of effects following oral administration: different time points before testing.

Data set [3] in a line: Stability in buffer, plasma and microsomal enzymes.
Where [4] appears, read: iv, vehicle E:E:S (1:1:18), read-out: S.A. ED50 (reducing spontaneous activity).
Where [5] appears, read: iv, vehicle saline, read-out: S.A. ED50 (reducing spontaneous activity).
Setting [6] is: iv, figure legends, i.v., vehicle 1:1:18 ethanol:emulphor:saline, read-out: ED50 after i.v. administration, spontaneous activity.

T1 sequence (P34972 whole entry): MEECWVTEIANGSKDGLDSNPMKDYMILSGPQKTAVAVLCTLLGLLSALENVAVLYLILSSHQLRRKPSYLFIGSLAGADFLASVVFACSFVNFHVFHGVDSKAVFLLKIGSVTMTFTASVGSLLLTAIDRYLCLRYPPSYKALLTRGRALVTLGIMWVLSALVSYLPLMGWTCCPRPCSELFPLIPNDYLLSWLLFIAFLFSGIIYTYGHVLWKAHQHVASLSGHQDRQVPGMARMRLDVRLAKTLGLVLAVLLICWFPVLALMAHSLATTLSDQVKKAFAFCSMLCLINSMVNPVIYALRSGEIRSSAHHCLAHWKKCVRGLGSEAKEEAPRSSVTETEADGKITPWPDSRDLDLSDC

A word on the Ki: it is the dissociation constant of the complex between target and ligand, obtained from inhibition or displacement. With “1-(2-methyl-4-N-piperidinobutyryloxy) [O-2374]”, in the data set with mice [1] (i.v., vehicle saline), the “S.A. ED50 (reducing spontaneous activity)” value worked out at 0.18 µmol/kg. In addition, the Ki on human CB2 receptor (Tables 2b, 3b, 4a) is 1.1 ± 0.1 nM.
As to `CC1=CC[C@@H]2[C@@H](C1)c1c(O)cc(C(C)(C)CCCCC(N)=O)cc1OC2(C)C` [O-2352, Carboxamido], in the data set with mice [1] (setting [4]), the ED50 turned out to be 0.16 µmol/kg. In addition, the “In vivo potency relative to Δ^9-THC (times more potent)” value in the data set with mice [2] (mice) is on record as “slightly more potent than Δ^9-THC”. At human CB2 receptor (Table 1B), the inhibition constant Ki amounted to 0.84 ± 0.05 nM.
With `CC1=CC[C@@H]2[C@@H](C1)c1c(O)cc(C(C)(C)CCCCC(=O)N3CCOCC3)cc1OC2(C)C` [O-2372, Morpholino-carboxamido], the ED50 in the data set with mice [1] (setting [4]) stood at 0.01 µmol/kg. Further, the inhibition constant Ki on human CB2 receptor (Table 1B) turned out to be 0.57 ± 0.04 nM.
The matching figures for `CC1=CC[C@@H]2[C@@H](C1)c1c(O)cc(C(C)(C)CCCCC(=O)N3CCCCC3)cc1OC2(C)C` [O-2373, Piperidino-carboxamido]: 0.02 µmol/kg and 0.96 ± 0.01 nM.
As to `CC1=CC[C@@H]2[C@@H](C1)c1c(O)cc(C(C)(C)CCCCC(=O)N3CCN(C)CC3)cc1OC2(C)C` [O-2381, Methylepiperazino-carboxamido], in the data set on mice [1] (setting [4]), the ED50 came to 21.4 µmol/kg. Moreover, at human CB2 receptor (Table 1B), the Ki was 389 ± 46 nM.
The matching figures for `CC1=CC[C@@H]2[C@@H](C1)c1c(O)cc(C(C)(C)CCCCC(=O)N3CCCC3)cc1OC2(C)C` [O-2399, Pyrrolidino-carboxamido]: 0.03 µmol/kg and 2.86 ± 0.68 nM.
The like results for `CC1=CC[C@@H]2[C@@H](C1)c1c(O)cc(C(C)(C)CCCCC(=O)N3CCCCCC3)cc1OC2(C)C` [O-2421, Homopiperidino-carboxamido] were, in that order, 0.15 µmol/kg and 3.45 ± 0.58 nM.
The matching figures for `CC1=CC[C@@H]2[C@@H](C1)c1c(O)cc(C(C)(C)CCCCC(=O)NN3CCCCCC3)cc1OC2(C)C` [O-2489, N-(Homo-piperidin-1-yl)-carboxamido]: 2.07 µmol/kg and 35.3 ± 4.48 nM.
For the compound `CNC(=O)CCCCC(C)(C)c1cc(O)c2c(c1)OC(C)(C)[C@@H]1CC=C(C)C[C@@H]21` [O-2490, N-(Methyl)carboxamido], the ED50 in the data set on mice [1] (setting [4]) came to 0.49 µmol/kg. Besides, the “Maximal effects in hypothermia and catalepsy assays” value in the data set with mice [2] (dose 1 mg/kg that produced maximal effects in the other two measures) is “failed to produce maximal effects in hypothermia and catalepsy assays”. Further, at human CB2 receptor (Table 1B), the Ki came to 3.16 ± 0.75 nM.
As for `CC1=CC[C@@H]2[C@@H](C1)c1c(O)cc(C(C)(C)CCCCC(=O)NN3CCCC3)cc1OC2(C)C` [O-2543, N-(Pyrrolidin-yl)-carboxamido], the ED50 with mice [1] (setting [4]) turned out to be 0.71 µmol/kg. Also, the Ki at human CB2 receptor (Table 1B) was 10.8 ± 0.08 nM.
On to `CC1=CC[C@@H]2[C@@H](C1)c1c(O)cc(C(C)(C)CCCCC(=O)NN3CCOCC3)cc1OC2(C)C` [O-2544, N-(Morpholin-1-yl)-carboxamido], for which the ED50 with mice [1] (setting [4]) turned out to be 0.17 µmol/kg. On human CB2 receptor (Table 1B), the inhibition constant Ki worked out at 11.4 ± 0.91 nM.
For the compound `CC1=CC[C@@H]2[C@@H](C1)c1c(O)cc(C(C)(C)CCCCn3ccnc3)cc1OC2(C)C` [O-2545, Imidazol-1-yl], the ED50 stood at 0.09 µmol/kg in the data set on mice [1] (iv, figure legends, i.v., saline, read-out: ED50 after i.v. administration, spontaneous activity); 0.01 µmol/kg in the data set with mice [1] (setting [4]); 0.09 µmol/kg in the data set on mice [1] (setting [5]). For the same compound, the “Stability in buffer, plasma and microsomal enzymes” value in data set [3] is “excellent stability in buffer and plasma and microsomal enzymes”. In addition, in the data set with mice [2] (FIG. 10, 0.24 μmoles/kg i.v., saline), the “Time course of effects after i.v. administration” value is “At 1 hr all effects, except ring immobility, are present but only antinociception is present at 2 hours”. In the data set on mice [2] (i.c.v., analogs dissolved in water, THC in emulphor:ethanol:saline, Table 5 not given), the “Activity in the behavioral tests after i.c.v. injection” value is listed as “the most potent”. Also, the “In vivo potency relative to Δ^9-THC (times more potent)” value in the data set with mice [2] (mice) is reported as “at least 40 fold”. For the same compound, in the data set with mice [2], the “Potency following oral administration (four tests)” value was “fully effective in producing antinociception, hypothermia and ring immobility but was only a partial agonist in producing sedation”. Further, the “Time course of effects following oral administration” value in the data set with mice [2] is reported as “By four hrs the effects had largely dissipated; also recorded: produce the full range of effects up to 2 hours”. On human CB2 receptor (Tables 2b, 3b, 4a), the Ki is 0.12 nM and 0.32 nM.
For the compound `CC1=CC[C@@H]2[C@@H](C1)c1c(O)cc(C(C)(C)CCCCn3ccnc3C)cc1OC2(C)C` [O-2651, 2-Methyl-imidazol-1-y1], the ED50 in the data set on mice [1] (setting [5]) was 1.46 µmol/kg. Further, the “In vivo potency, fold less potent than the hydrochloride salt of O-2545” value in the data set on mice [2] (mice, administered in saline) is on record as “at least 10 fold”. Moreover, the Ki on human CB2 receptor (Tables 2b, 3b, 4a) was determined as 1.22 ± 0.28 nM.
With `CC1=CC[C@@H]2C(C1)c1c(OC(=O)CCCN(C(C)C)C(C)C)cc(C(C)(C)CCCCC(=O)N3CCOCC3)cc1OC2(C)C` (some centres unmarked) [O-2694, Diisopropylaminobutyrate of Δ^8-THC-3-(1,1-dimethyl-6-morpholin-4-yl-6-oxo-hexyl)], in the data set on mice [1] (Table 4b, vehicle not indicated, read-out: S.A. ED50 (reducing spontaneous activity)), the ED50 amounted to 0.045 µmol/kg. On human CB2 receptor (Tables 2b, 3b, 4a), the inhibitory constant (Ki) is 2.77 ± 0.44 nM.
As for `CC1=CC[C@@H]2[C@@H](C1)c1c(O)cc(C(C)(C)CCCCn3cccn3)cc1OC2(C)C` [O-2715, Pyrazol-1-yl], the ED50 in the data set on mice [1] (setting [6]) is 0.004 µmol/kg. Further, the ED50 in the data set on mice [1] (setting [4]) was found to be 0.004 µmol/kg. Also, the “Time course of effects after i.v. administration” value in the data set on mice [2] (FIG. 12, 0.3 mg/kg (0.74 μmoles/kg) i.v., vehicle 1:1:18) is “duration of antinociception and hypothermia exceeded that of sedation and relative immobility”. In the data set with mice [2], the “Potency following oral administration (four tests)” value was “active in all tests” and the “Time course of effects following oral administration” value is “negligible effects at one hr; also recorded: effects that lasted only 1 hour”. Also, the inhibitory constant (Ki) at human CB2 receptor (Tables 2b, 3b, 4a) was 1.52 ± 0.31 nM.
As to `CC1=CC[C@@H]2[C@@H](C1)c1c(O)cc(C(C)(C)CCCCn3cncn3)cc1OC2(C)C` [O-2716, 1,2,4-Triazol-1-yl], the ED50 in the data set with mice [1] (setting [6]) and with mice [1] (setting [4]) was 0.03 µmol/kg in each case. Further, in the data set on mice [2] (FIG. 11, 0.1 mg/kg (0.24 μmoles/kg) i.v., vehicle 1:1:18), the “Time course of effects after i.v. administration” value is “relatively short acting with most of the effects gone by 1 hour and no separation of effects”. Further, the “Time course of effects following oral administration” value with mice [2] is “Maximal effects were observed at 30 min and only a slight decrease in activity was observed at 2 hrs; also recorded: effects lasted at least 2 hours”. Further, at human CB2 receptor (Tables 2b, 3b, 4a), the Ki is 0.92 ± 0.07 nM.
Turning to `CC1=CC[C@@H]2[C@@H](C1)c1c(O)cc(C(C)(C)CCCCc3ncc[nH]3)cc1OC2(C)C` [O-2737, 1H-Imidazol-2-yl], the ED50 in the data set with mice [1] (setting [4]) is over 24.5 µmol/kg; with mice [1] (setting [5]), over 2.2 µmol/kg. The inhibitory constant (Ki) at human CB2 receptor (Tables 2b, 3b, 4a) came to 14.8 ± 1.14 nM.
